Data: patent publication US20220194959A1, “CRYSTAL FORM OF EGFR INHIBITOR AND PREPARATION METHOD THEREOF” (MEDSHINE DISCOVERY INC., priority 2019, published 2022)

Experiments:
Assay type in all cases: physicochemical
[1] = Hygroscopicity study by dynamic vapor sorption (DVS)
Method: 1.4. Dynamic Vapor Sorption, DVS Method
Instrument model: SMS DVS Advantage dynamic vapor sorption apparatus
Test conditions: The sample (10 to 15 mg) is weighed and placed in a DVS sample pan for testing.
The detailed DVS parameters are as follows:
Equilibration: dm/dt=0.01%/min (The shortest time: 10 min, and the longest time: 180 min)
Drying: Dried for 120 min at 0% RH
RH (%) test gradient: 10%
Range of RH (%) test gradient: 0%-90%-0%
The classification of hygroscopicity evaluation is as follows:
10-15 mg of the crystal form A and the crystal form C of the compound of formula (II) were weighed and placed into a DVS sample pan for testing.

[2] = Stability assay under illumination, high humidity, high temperature and acceleration (related substances and crystal form); set-up: Total impurity: unit not given here; settings: for Change of crystal form: 10 days
Method: The stability of crystal form of the crystal form A and the crystal form C of the compound of formula (II) under the conditions of illumination, high humidity (92.5% RH), high temperature (60° C.) and acceleration (40° C./75% RH) was investigated.
Illumination test chamber, model: SHH-100GD-2, conditions: 5000±500 lux (visible light) and 90 mw/cm^2 (ultraviolet).
Electrothermal blowing dry box, model: GZX-9140MBE, conditions: 60° C.
Constant temperature and humidity chamber, model: LDS-800Y, conditions: 40° C./75% RH.
Constant temperature and humidity chamber, model: SHH-250SD, conditions: 25° C., 92.5% RH.
An appropriate amount of the crystal form A of the compound of formula (II) was weighed and placed in a dry and clean weighing bottle. The sample was spread into a thin layer, and fully exposed to assay conditions (60° C., 92.5% RH, illumination) and acceleration conditions (40° C./75% RH). After 17 days, the compound was taken out and determined for related substances and crystal form. […]

[3] = Solubility assay in media with different pHs; settings: for Solubility (2 hours) / Solubility (24 hours): 37° C.; for Final pH: filtrate of saturated solution
Method: (§1) 9 parts of 4 mg of the crystal form A of the compound of formula (II) were weighed and added to a 1.5 mL sample bottle, respectively, and then 1 mL of different media (0.1 mol/L HCl, 0.01 mol/L HCl, pH3.8 buffer solution, pH4.5 buffer solution, pH5.5 buffer solution, pH6.0 buffer solution, pH6.8 buffer solution, pH7.4 buffer solution, and water) were added, respectively. Based on the dissolution situation, the raw material compound was continuously added until a saturated solution was formed. The magnetic bar was added to the above suspension, and the suspension was placed on a magnetic stirrer (37° C., protected from light) and stirred. […] The upper layer of the sample was filtered with a filter membrane, and the pH value of the filtrate was determined. The saturated solubility of the compound was determined by HPLC.
as §1, with “C” for “A”

COc1cc2ncnc(Nc3cccc(Cl)c3F)c2cc1N1CC2(CN(C)C2)OC1=O.Cc1ccc(S(=O)(=O)O)cc1 [crystal form C of the compound of formula (II)]
ΔW (weight increase by moisture absorption) ([1]; 25° C. and 80% RH): 3.697% | Classification of hygroscopicity ([1]; 25° C., 80% RH): hygroscopic | Stability compared with the crystal form D of the maleate of the compound of formula (I) [2]: better | Related substance at relative retention time 0.24 ([2]; 40° - 75% RH - 10 days): 0.03 | Related substance at relative retention time 0.69 ([2]; 40° - 75% RH - 10 days): 0.06 | Related substance at relative retention time 0.88 ([2]; 40° - 75% RH - 10 days): 0.04 | Related substance at relative retention time 0.92 ([2]; 40° - 75% RH - 10 days): 0.02 | Related substance at relative retention time 1.24 ([2]; 40° - 75% RH - 10 days): 0.14 | Related substance at relative retention time 1.30 ([2]; 40° - 75% RH - 10 days): 0.17 | Related substance at relative retention time 1.81 ([2]; 40° - 75% RH - 10 days): 0.03 | Total impurity ([2]; 40° - 75% RH - 10 days): 0.53 | Related substance at relative retention time 0.24 ([2]; 60° - 10 days): 0.02 | Related substance at relative retention time 0.69 ([2]; 60° - 10 days): 0.26 | Related substance at relative retention time 0.88 ([2]; 60° - 10 days): 0.03 | Related substance at relative retention time 1.24 ([2]; 60° - 10 days): 0.11 | Related substance at relative retention time 1.30 ([2]; 60° - 10 days): 0.17 | Related substance at relative retention time 1.81 ([2]; 60° - 10 days): 0.05 | Related substance at relative retention time 1.89 ([2]; 60° - 10 days): 0.05 | Total impurity ([2]; 60° - 10 days): 0.69 | Related substance at relative retention time 0.24 ([2]; 92.5% RH - 10 days): 0.02 | Related substance at relative retention time 0.69 ([2]; 92.5% RH - 10 days): 0.04 | Related substance at relative retention time 0.88 ([2]; 92.5% RH - 10 days): 0.02 | Related substance at relative retention time 1.24 ([2]; 92.5% RH - 10 days): 0.12 | Related substance at relative retention time 1.30 ([2]; 92.5% RH - 10 days): 0.17 | Total impurity ([2]; 92.5% RH - 10 days): 0.37 | Related substance at relative retention time 0.24 ([2]; Illumination - 10 days): 0.02 | Related substance at relative retention time 0.69 ([2]; Illumination - 10 days): 0.04 | Related substance at relative retention time 0.81 ([2]; Illumination - 10 days): 0.04 | Related substance at relative retention time 0.92 ([2]; Illumination - 10 days): 0.05 | Related substance at relative retention time 1.15 ([2]; Illumination - 10 days): 0.02 | Related substance at relative retention time 1.17 ([2]; Illumination - 10 days): 0.03 | Related substance at relative retention time 1.24 ([2]; Illumination - 10 days): 0.11 | Related substance at relative retention time 1.30 ([2]; Illumination - 10 days): 0.17 | Total impurity ([2]; Illumination - 10 days): 0.40 | Related substance at relative retention time 0.24 ([2]; Initial sample): 0.02 | Related substance at relative retention time 0.69 ([2]; Initial sample): 0.04 | Related substance at relative retention time 0.88 ([2]; Initial sample): 0.02 | Related substance at relative retention time 0.92 ([2]; Initial sample): 0.02 | Related substance at relative retention time 1.24 ([2]; Initial sample): 0.12 | Related substance at relative retention time 1.30 ([2]; Initial sample): 0.17 | Total impurity ([2]; Initial sample): 0.42 | Change of crystal form ([2]; acceleration (40° C./75% RH)): not changed | Change of crystal form ([2]; high humidity (92.5% RH)): not changed | Change of crystal form ([2]; high temperature (60° C.)): not changed | Change of crystal form ([2]; illumination): not changed | Formation of degradation impurity (conclusion) ([2]; illumination, high temperature, high humidity, acceleration): produces a degradation impurity only under the condition of high temperature | Solubility (2 hours) ([3]; 0.01 mol/L HCl): 5.666 mg/mL | Solubility (24 hours) ([3]; 0.01 mol/L HCl): 2.863 mg/mL | Solubility (2 hours) ([3]; 0.1 mol/L HCl): >10 mg/mL | Solubility (24 hours) ([3]; 0.1 mol/L HCl): >10 mg/mL | Solubility (conclusion) ([3]; buffer solutions below pH 6.8 and purified water): high solubility | Final pH ([3]; 0.01 mol/L HCl): 2.863 | Final pH ([3]; pH 3.8 buffer solution): 3.928 | Final pH ([3]; pH 4.5 buffer solution): 4.560 | Final pH ([3]; pH 5.5 buffer solution): 5.528 | Final pH ([3]; pH 6.0 buffer solution): 5.708 | Final pH ([3]; pH 6.8 buffer solution): 6.625 | Final pH ([3]; pH 7.4 buffer solution): 7.142 | Final pH ([3]; water): 5.444 | Evaluation of dissolution property ([3]; merged cell: 0.1 mol/L HCl, 0.01 mol/L HCl, pH 3.8, 4.5, 5.5, 6.0 buffer solutions and water): High solubility | Evaluation of dissolution property ([3]; merged cell: pH 6.8 and pH 7.4 buffer solutions): Low solubility | Solubility (2 hours) ([3]; pH 3.8 buffer solution): 1.612 mg/mL | Solubility (24 hours) ([3]; pH 3.8 buffer solution): 1.681 mg/mL | Solubility (2 hours) ([3]; pH 4.5 buffer solution): 1.167 mg/mL | Solubility (24 hours) ([3]; pH 4.5 buffer solution): 1.186 mg/mL | Solubility (2 hours) ([3]; pH 5.5 buffer solution): 0.916 mg/mL | Solubility (24 hours) ([3]; pH 5.5 buffer solution): 0.863 mg/mL | Solubility (2 hours) ([3]; pH 6.0 buffer solution): 0.699 mg/mL | Solubility (24 hours) ([3]; pH 6.0 buffer solution): 0.328 mg/mL | Solubility (2 hours) ([3]; pH 6.8 buffer solution): 0.260 mg/mL | Solubility (24 hours) ([3]; pH 6.8 buffer solution): 0.071 mg/mL | Solubility (2 hours) ([3]; pH 7.4 buffer solution): 0.081 mg/mL | Solubility (24 hours) ([3]; pH 7.4 buffer solution): 0.040 mg/mL | Solubility (2 hours) ([3]; water): 0.720 mg/mL | Solubility (24 hours) ([3]; water): 0.646 mg/mL
